In PMC3626250, “Effects of Borneol on Pharmacokinetics and Tissue Distribution of Notoginsenoside R1 and Ginsenosides Rg1 and Re in Panax notoginseng in Rabbits” (Journal of Analytical Methods in Chemistry, 2013):

Assays:
[1] = system: vinblastine-selected Caco-2 cells; assay: Transport studies across Caco-2 monolayers (P app, efflux ratio); format: in vitro ADME; details: for increase of P app (apical-to-basolateral) by Borneol / increase of P app (basolateral-to-apical) by Borneol: 200 μM Borneol, Caco-2; for P app values: Caco-2 monolayers, without Borneol; for substrate of P-gp: concluded from efflux ratio in vinblastine-selected Caco-2 cells
Experimental: Medium was replaced every 2-3 days. […] The vinblastine-selected Caco-2 cells were cultivated in the presence of 10 nM vinblastine to induce P-glycoprotein (P-gp) expression. […] Prior to the transport study, cytotoxicity of NGR1, GRg1, GRe, and Borneol toward Caco-2 cells was determined using MTT assays.
In transport studies, vinblastine-selected Caco-2 cells were seeded on polycarbonate filter of transwells for 18–21 days before starting transport study, and the monolayers with the transepithelial electrical resistance (TEER) values greater than 300 Ωcm^2 were used. Caco-2 monolayers were rinsed twice with Hanks' balanced salt solution (HBSS) and preincubated in HBSS at 37°C for 30 min before starting experiments. To start the experiments, 500 μM of NGR1, GRg1, and GRe in final concentrations were added to the donor side with or without 200 μM Borneol and then incubated at 37°C. […] After each sampling, 0.1 mL of HBSS was added to the receiver chamber to maintain a constant volume. All the experiments were performed five times in duplicate. The collected samples were stored at −20°C until HPLC analysis. During the above transport studies, the TEER values were also monitored before and at the end of each experiment. Apparent permeability coefficients (P app) were then calculated according to the following equation: (1) Papp=(dC/dt×V)/(A×C0), where dC/dt is the rate of the test compound appearing in the receiver chamber, V is the volume of the solution in the receiver chamber, A is the cell monolayer surface area, and C 0 is the initial concentration of the test compound added in the donor chamber.
The efflux ratio (Er) was calculated using the following equation: (2) Er=Papp(basolateral-apical)/Papp(apical-basolateral).

[2] = system: Caco-2 cells; assay: MTT cytotoxicity assay toward Caco-2 cells; format: cell-based; details: chosen for transport study
Experimental: The Caco-2 cells were cultured in Dulbecco's modified Eagle's medium (DMEM) supplemented with 20% foetal bovine serum, 1% nonessential amino acids and penicillin-streptomycin, at 37°C in an atmosphere with a relative humidity of 95% and a CO2 flow of 5%. Medium was replaced every 2-3 days. When the cell monolayer reached 80% confluence, the cells were detached with a solution of 0.02% EDTA and 0.25% trypsin. The vinblastine-selected Caco-2 cells were cultivated in the presence of 10 nM vinblastine to induce P-glycoprotein (P-gp) expression. The culture medium was changed to a fresh medium without vinblastine 24 h before experiments, and the cells were used between passages 25 and 46. Prior to the transport study, cytotoxicity of NGR1, GRg1, GRe, and Borneol toward Caco-2 cells was determined using MTT assays. Noncytotoxic concentrations of 500 μM NGR1, GRg1, GRe, and 200 μM Borneol (dissolved in DMSO) were chosen for transport study.

[3] = Caco-2 Model, 500 μM compound, with or without 200 μM Borneol (see label)

Compound	increase of P app (apical-to-basolateral) by Borneol [1] [fold]	increase of P app (basolateral-to-apical) by Borneol [1] [fold]	P app (apical to basolateral) [1, 3]	P app (basolateral to apical) [1, 3]	P app values [1]	substrate of P-gp [1]	E r ([1]; efflux ratio P app(basolateral-apical)/P app(apical-basolateral), with or without 200 μM Borneol (see label))	Noncytotoxic concentration [2] [µM]
CC(C)=CCC[C@](C)(O[C@@H]1O[C@H](CO)[C@@H](O)[C@H](O)[C@H]1O)[C@H]1CC[C@]2(C)[C@@H]1[C@H](O)C[C@@H]1[C@@]3(C)CC[C@H](O)C(C)(C)[C@@H]3[C@@H](O[C@@H]3O[C@H](CO)[C@@H](O)[C@H](O)[C@H]3O[C@@H]3OC[C@@H](O)[C@H](O)[C@H]3O)C[C@]12C [NGR1, notoginsenoside R1]	2.9	2.9	0.64 ± 0.08 × 10^−7 cm/s	0.68 ± 0.12 × 10^−7 cm/s	less than 10^−6 cm/s	seemed not to be substrates of P-gp	1.06	500
CC(C)=CCC[C@](C)(O[C@@H]1O[C@H](CO)[C@@H](O)[C@H](O)[C@H]1O)[C@H]1CC[C@]2(C)[C@@H]1[C@H](O)C[C@@H]1[C@@]3(C)CC[C@H](O)C(C)(C)[C@@H]3[C@@H](O[C@@H]3O[C@H](CO)[C@@H](O)[C@H](O)[C@H]3O[C@@H]3O[C@@H](C)[C@H](O)[C@@H](O)[C@H]3O)C[C@]12C [GRe, ginsenoside Re]	2.3	2.4			less than 10^−6 cm/s	seemed not to be substrates of P-gp		500
CC(C)=CCC[C@](C)(O[C@@H]1O[C@H](CO)[C@@H](O)[C@H](O)[C@H]1O)[C@H]1CC[C@]2(C)[C@@H]1[C@H](O)C[C@@H]1[C@@]3(C)CC[C@H](O)C(C)(C)[C@@H]3[C@@H](O[C@@H]3O[C@H](CO)[C@@H](O)[C@H](O)[C@H]3O)C[C@]12C [GRg1, ginsenoside Rg1]	2.6	2.6			less than 10^−6 cm/s	seemed not to be substrates of P-gp		500
